Laboratory results published in patent US20160310389A1, “Low Viscosity Hair Care Composition” (The Procter & Gamble Company, priority 2015, published 2016).

Key:
Assay type in all cases: physicochemical
[1] = Kinematic viscosity of surfactant base formulation with added agent (calibrated Cannon viscometers); settings: for Kinematic viscosity at 40 C., 2% oil: 2% agent in base formulation; for Lowest viscosity achieved: kinematic viscosity at 40° C., lowest over 2%, 4%, 6%, 8% agent in base formulation (24% sodium undecyl sulfate, 6% lauramidopropyl betaine, 1.6% perfume); for Kinematic viscosity at 40 C., 4% oil: 4% agent in base formulation; for Kinematic viscosity at 40 C., 6% oil: 6% agent in base formulation; for Kinematic viscosity at 40 C., 8% oil: 8% agent in base formulation
Text: Referring to Tables 1 and 2, the base formulations were made by mixing 1.6% perfume, 24% sodium undecyl sulfate (CAS#1072-24-8) active, 6% lauramidopropyl betaine (CAS#4292-10-8) active and 60.4% deionized water which leaves 8% unfilled for the addition of a viscosity reducing agent (the balance being filled in by distilled water). For all compositions, the surfactant, water and additives including viscosity reducing agents were expected to be in a single phase.
The agents from Tables 1 and 2 were added to the base formulation at a percentage of 2%, 4%, 6%, and 8% into the above surfactant solution. The subsequent formulations were vortexed and put into oven at 60° C. overnight to form homogeneous solution. The viscosities of the formulations were measured with calibrated viscometers (Size 200/350/450) from Cannon Instrument Company (2139 High Tech Road, State College, Pa., USA, 16803).
After the equilibration, the formulations were drawn to reach the starting mark with a rubber suction bulb and the flow time between the starting mark and end mark was recorded for calculation. Each formulation was measured three times to calculate average and standard deviation. Between samples, viscometer was cleaned with water and acetone to rinse off residual.
Viscosity values were calculated based on the equation:
Viscosity (mm^2/s (cSt))=Time (s)*Constant (mm^2/s^2·(cSt/s))
The time in the above equation is the flow time recorded in the experiment and the constant numbers for each calibrated viscometer were obtained from the manuals.

[2] = SAXS correlation length of the micelles; settings: for Change in correlation length compared to control: control 51 A
Text: Now referring to Table 4, SAXS (Small angle x-ray scattering) was used to characterize the structure of the surfactant aggregates. For these set of samples, the broad peak represents the correlation length (CL) of the micelles and was used to differentiate between the different formulations.
SAXS data was collected with a Bruker NanoSTAR (Bruker AXS Inc., Madison, Wis., U.S.A.) using the micro-focus, Cu x-ray tube, operating at 45 kV, 0.650 mA. The sample to detector distance was 112.050 cm and the detector was Vantec2K 2-dimensional area detector. Samples were placed in 2 mm quartz capillaries, sealed with expoxy resin to prevent evaporation. The sealant is permitted to cure for 2 hours at RT (room temperature) prior to loading into the SAXS sample chamber for data acquisition under vacuum with a data collection time of 1200 s. The data acquisition angular range is 0.3° to 3.0° […], to observe the presence and location of any intensity bands in the x-ray scattering pattern.
Each raw 2-D SAXS data is integrated azimuthally and plotted versus the scattering vector (q), which is expressed as a […] in units of angstroms (1/Å). • The values for q are calculated by the SAXS instrument according to the following equation: […]
Where: 2θ is the scattering angle; and λ is the wavelength used. For each formulation analyzed, the location of each intensity peak on the plot of (Intensity) I vs q is identified and recorded.

[3] = NMR self-diffusion coefficients and specific diffusivity ratio; settings: for Specific diffusivity ratio measured at 4%: diffusion coefficient of the viscosity reducing agent/diffusion coefficient of the surfactant, 4% additive; for Diffusion Coefficient (m^2/s) surfactant at 4% additive: surfactant self-diffusion
Description: Now referring to Table 5, the specified viscosity reducing agents were added to the formula at a level of 4% in absence of other viscosity reducing agents. Diffusion coefficients were determined using a vendor-supplied pulse sequence (“ledbpgq2s”, stimulated echo with bipolar gradients and convection compensation) using a Bruker Avance 700 MHz NMR spectrometer equipped with a Diff-30 high gradient diffusion probe. Gradient pulse durations ranged between 1700-2700 us, with diffusion periods ranging from 50-100 ms. 32 linearly-spaced gradient values were used ranging from 2%-95% of 40 A current, with resulting gradient strengths given by 30 Gauss/cm/A. Data were processed using software written in-house. It is often necessary to fit more than one diffusion coefficient to individual signals. Average diffusion coefficients are reported in these cases. Averages were calculated by averaging the reciprocals of the diffusion coefficients and then taking the reciprocal of that average.
The specific diffusivity ratio is calculated as the ratio of the diffusion coefficient of the viscosity reducing agent/diffusion coefficient of the surfactant.
Two mechanisms of viscosity reduction are hypothesized based on self-diffusion coefficients. This leads to a simple diagnostic measurement to classify perfumes by their mechanism of viscosity reduction. That diagnostic is the ratio of the perfume self-diffusion coefficient to the surfactant self-diffusion coefficient (specific diffusivity ratio). In mechanism 1, the surfactant diffusion coefficient is not reduced, and may be increased, while the perfume diffusion coefficient is faster still. In mechanism 2, the surfactant and perfume diffusion coefficient are reduced to relatively small, nearly equal values. For mechanism 1, the viscosity reducing agent diffuses faster than the surfactant (specific diffusivity ratio>1), whereas for mechanism 2, the viscosity reducing agent diffuses slower than the surfactant (specific diffusivity ratio<1).

| Compound | Kinematic viscosity at 40 C., 2% oil [1] | Lowest viscosity achieved [1] | Kinematic viscosity at 40 C., 4% oil [1] | Kinematic viscosity at 40 C., 6% oil [1] | Kinematic viscosity at 40 C., 8% oil [1] | Correlation length peak [A] ([2]; 2% oil) | Change in correlation length compared to control ([2]; 2% oil) | Correlation length peak [A] ([2]; 4% oil) | Change in correlation length compared to control ([2]; 4% oil) | Specific diffusivity ratio measured at 4% [3] | Diffusion Coefficient (m^2/s) surfactant at 4% additive [3] |
| --- | --- | --- | --- | --- | --- | --- | --- | --- | --- | --- | --- |
| CC(=O)OCCC(C)CCC=C(C)C (stereo not shown) [Citronellyl Acetate] | 362.7 cSt | 363 cSt | – | – | – | – | – | – | – | – | – |
| CCC(=O)OC1CC2CC1C1CC=CC21 (stereo not shown) [Cyclaprop] | 404.2 cSt | 404 cSt | – | – | – | – | – | – | – | – | – |
| CC1=CCC(C(C)C)=CC1 [gamma-Terpinene] | 238.0 cSt | 32 cSt | 65.0 cSt | 31.7 cSt | – | – | – | – | – | – | – |
| CC(C)COC(=O)c1ccccc1O [Iso Butyl Salicylate] | 408.7 cSt | 409 cSt | – | – | – | – | – | – | – | – | – |
| CCCCCC(=O)OCC(C)C [Isobutyl Hexanoate] | 390.0 cSt | 109 cSt | 177.9 cSt | 140.9 cSt | 109.4 cSt | – | – | – | – | – | – |
| CCCCCC1(C)CCC(C)(C)C1=O (stereo not shown) [Veloutone] | 260.2 cSt | 47 cSt | 129.1 cSt | 56.3 cSt | 47.3 cSt | 55 A | 7.8% | 59 A | 15.7% | 0.965 | 2.3854E−12 m^2/s |
| CCO [Ethanol] | 205.6 cSt | 29 cSt | 111.0 cSt | 50.8 cSt | 29.2 cSt | 51 A | 0.0% | 49 A | −3.9% | – | – |
| CCCCCCCC(OC)OC [1,1-Dimethoxyoctane] | 500.7 cSt | 308 cSt | 308.1 cSt | – | – | – | – | – | – | – | – |
| C=CC(C)(CCC=C(C)C)OC(=O)C(C)C (stereo not shown) [Linalyl Iso Butyrate] | 223.4 cSt | 38 cSt | 73.0 cSt | 37.7 cSt | 39.9 cSt | 56 A | 9.8% | 61 A | 19.6% | 0.7224 | 2.5217E−12 m^2/s |
| CC(C)=CCC/C(C)=C/COC(=O)Cc1ccccc1 [Geranyl Phenyl Acetate] | 224.0 cSt | 34 cSt | 76.0 cSt | 34.3 cSt | 36.6 cSt | 55 A | 7.8% | 60 A | 17.6% | 0.8119 | 3.6554E−12 m^2/s |
| C=C(C)[C@H]1CC=C(C)CC1 [Dipentene] | 307.6 cSt | 35 cSt | 74.5 cSt | 35.1 cSt | 42.6 cSt | – | – | – | – | – | – |
| OCC(O)CO [Glycerin] | – | – | – | – | – | 51 A | 0.0% | 51 A | 0.0% | – | – |
| CC12CCC(CC1=O)C2(C)C (stereo not shown) [Camphor Gum] | 365.8 cSt | 127 cSt | 127.2 cSt | – | – | – | – | – | – | – | – |
| CC(=O)OCCC(C)CCCC(C)C (stereo not shown) [3,7-Dimethyloctyl Acetate] | 445.7 cSt | 446 cSt | – | – | – | – | – | – | – | – | – |
| CC(C)CC=C(C=O)C(C)C [2-Isopropyl-5-methyl-2-hexenal] | 332.3 cSt | 332 cSt | – | – | – | – | – | – | – | – | – |
| COC(C)(C)C1CC=C(C)CC1 (stereo not shown) [Orange Flower Ether] | 552.2 cSt | 419 cSt | 418.8 cSt | – | – | – | – | – | – | – | – |
| CCCCCCCCCCCCCC(=O)OC(C)C [Iso Propyl Myristate] | 234.2 cSt | 30 cSt | 53.7 cSt | 30.4 cSt | 45.0 cSt | – | – | – | – | 0.6401 | 2.1874E−12 m^2/s |
| CCCCCCCCCCCCCCCC [Hexadecane] | 21.1 cSt | 18 cSt | 18.1 cSt | – | – | 59 A | 15.7% | 66 A | 29.4% | 0.9998 | 4.1943E−12 m^2/s |
| CCCCOC(=O)c1ccccc1O [Butyl Salicylate] | 367.9 cSt | 368 cSt | – | – | – | – | – | – | – | – | – |
| COc1ccc(C=O)cc1 [Anisic aldehyde] | – | – | – | – | – | 51 A | 0.0% | 51 A | 0.0% | 3.3012 | 1.8945E−11 m^2/s |
| CCC(CC(C)CC)=NO (stereo not shown) [5-Methyl-3-Heptanone Oxime] | 246.3 cSt | 246 cSt | – | – | – | – | – | – | – | – | – |
| CC1=CC=C(C(C)C)CC1 [alpha-Terpinene] | 324.4 cSt | 42 cSt | 96.0 cSt | 41.5 cSt | 46.7 cSt | – | – | – | – | – | – |
| CCC(=O)O[C@@H]1C[C@H]2CC[C@]1(C)C2(C)C (racemic) [Iso Bornyl Propionate] | 463.1 cSt | 463 cSt | – | – | – | – | – | – | – | – | – |
| CC(C)CCOC(=O)c1ccccc1O [Isoamyl Salicylate] | 460.3 cSt | 193 cSt | 193.2 cSt | – | – | – | – | – | – | – | – |
| CCCCCCC1C(=O)CCC1C(=O)OC (stereo not shown) [Dihyro Iso Jasmonate] | 334.9 cSt | 119 cSt | 119.1 cSt | – | – | – | – | – | – | – | – |
